Assay results: ChEMBL document CHEMBL1201862, “PubChem BioAssay data set” (2004)
Activity calls are given as the source filed them.

What was measured:
[1] = NIH-3T3 fibroblast cytotoxicity, dose response, cytotoxicity control, cell-based, fluorescence, Alamar Blue, secondary assay (AID 2327); assay type: functional;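 further: NIH-3T3 mouse fibroblasts cultured with fluconazole at 8 µg/mL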
[2] = C. albicans growth with fluconazole, confirmation, fluorescence, retest (AID 2467); assay type: functional, cell-based
[3] = microbe, parasite or virus in culture; assay type: functional; settings: Mycobacterium tuberculosis
[4] = tested on: CHO-K1; assay: (§1) Counterscreen for antagonists of the orexin 1 receptor (OX1R; HCRTR1): Homogeneous time resolved fluorescence (HTRF)-based cell-based dose response assay to identify antagonists of the parental CHO-K1 cell line. [Related pubchem assays (depositor defined):AID434989, AID435008, AID463079, AID485270, AID492963, AID492964, AID492965, AID493232, AID504699, AID504701]; assay type: functional; settings: Cricetulus griseus
[5] = as §1, with “Fluorescence-based” for “Homogeneous time resolved fluorescence (HTRF)-based”, “cell-based high throughput” for “cell-based”, “CHO” for “CHO-K1”; assay type: functional
[6] = target: T1, Orexin/Hypocretin receptor type 1 (Homo sapiens, UniProt O43613); assay: Homogeneous Time Resolved Fluorescence (HTRF)-based cell-based high throughput dose response assay for antagonists of the orexin 1 receptor (OX1R; HCRTR1). [Related pubchem assays (depositor defined):AID434989, AID435008, AID463079, AID485270, AID492963, AID492964, AID492965, AID493232, AID504717, AID504718]; assay type: functional
T1 sequence (O43613 whole entry): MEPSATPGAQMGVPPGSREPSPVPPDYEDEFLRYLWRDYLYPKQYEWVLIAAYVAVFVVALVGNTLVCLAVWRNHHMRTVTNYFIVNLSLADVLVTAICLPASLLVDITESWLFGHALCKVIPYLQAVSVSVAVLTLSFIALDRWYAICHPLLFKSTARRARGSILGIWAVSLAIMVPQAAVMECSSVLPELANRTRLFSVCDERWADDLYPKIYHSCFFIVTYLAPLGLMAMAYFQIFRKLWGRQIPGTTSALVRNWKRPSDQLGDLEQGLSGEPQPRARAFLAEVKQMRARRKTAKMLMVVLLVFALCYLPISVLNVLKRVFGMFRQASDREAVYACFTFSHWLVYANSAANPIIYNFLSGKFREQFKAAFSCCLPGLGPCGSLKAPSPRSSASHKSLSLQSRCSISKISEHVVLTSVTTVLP

[7] = target: T1, Orexin/Hypocretin receptor type 1; assay: Fluorescence-based cell-based high throughput dose response assay for antagonists of the orexin 1 receptor (OX1R; HCRTR1). [Related pubchem assays (depositor defined):AID434989, AID435008, AID463079, AID485270, AID492963, AID492964, AID492965, AID493232, AID504717, AID504718]; assay type: functional
[8] = target: T2, Orexin receptor type 2 (Homo sapiens, UniProt O43614); assay: Counterscreen assay for antagonists of the orexin 1 receptor (OX1R; HCRTR1): Fluorescence-based cell-based dose response assay for antagonists of the orexin 2 receptor (OX2R; HCRTR2), run by assay provider.; assay type: functional
T2 sequence (O43614 whole entry): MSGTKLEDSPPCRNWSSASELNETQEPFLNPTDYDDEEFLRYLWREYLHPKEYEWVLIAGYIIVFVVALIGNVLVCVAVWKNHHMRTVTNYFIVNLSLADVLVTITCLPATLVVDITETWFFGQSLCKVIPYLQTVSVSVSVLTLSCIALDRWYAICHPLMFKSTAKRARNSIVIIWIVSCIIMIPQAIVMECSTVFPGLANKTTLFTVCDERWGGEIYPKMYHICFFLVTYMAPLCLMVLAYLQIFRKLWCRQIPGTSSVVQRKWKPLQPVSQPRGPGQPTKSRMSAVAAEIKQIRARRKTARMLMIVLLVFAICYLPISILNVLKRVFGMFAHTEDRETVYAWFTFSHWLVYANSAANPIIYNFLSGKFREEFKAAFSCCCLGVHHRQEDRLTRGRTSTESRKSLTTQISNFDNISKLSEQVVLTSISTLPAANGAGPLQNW

[9] = target: T2, Orexin receptor type 2; assay: Counterscreen assay for antagonists of the orexin 1 receptor (OX1R; HCRTR1): Homogeneous Time Resolved Fluorescence (HTRF)-based cell-based dose response assay for antagonists of the orexin 2 receptor (OX2R; HCRTR2), run by assay provider.; assay type: functional
[10] = target: T3, Probable nicotinate-nucleotide adenylyltransferase (Staphylococcus aureus (strain N315), UniProt P65502); assay type: functional, Staphylococcus aureus subsp. aureus N315;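 on IC50 Mean: confirmatory dose-response retesting of NadD inhibitor hits first found in an ultra-high-throughput screen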
T3 sequence (P65502 whole entry): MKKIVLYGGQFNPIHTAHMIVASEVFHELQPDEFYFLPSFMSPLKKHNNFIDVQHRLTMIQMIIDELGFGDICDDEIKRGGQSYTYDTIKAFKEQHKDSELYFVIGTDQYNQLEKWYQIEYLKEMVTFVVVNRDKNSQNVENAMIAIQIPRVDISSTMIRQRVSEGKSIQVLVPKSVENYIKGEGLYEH

[11] = target: T3, Probable nicotinate-nucleotide adenylyltransferase; assay type: functional, Staphylococcus aureus subsp. aureus N315; settings: read-out: IC50_Mean
[12] = tested on: Vero; assay: Vero cell cytotoxicity, cytotoxicity control for flavivirus capping enzyme inhibitors (AID 588742); assay type: functional; settings: Chlorocebus sabaeus
[13] = THP-1 cell cytotoxicity, dose response, cytotoxicity control for Vif-APOBEC3G degradation inhibitor project, THP-1 cells (AID 1117359); assay type: functional; settings: Human immunodeficiency virus 1, THP-1
[14] = target: T4, Short transient receptor potential channel 4 (Mus musculus, UniProt Q9QUQ5); assay: mouse TRPC4 channel activators, dose response, cell-based, HEK293 TRPC4/mu-opioid, Fluo-4 calcium (AID 434937); assay type: functional
T4 sequence (Q9QUQ5 whole entry): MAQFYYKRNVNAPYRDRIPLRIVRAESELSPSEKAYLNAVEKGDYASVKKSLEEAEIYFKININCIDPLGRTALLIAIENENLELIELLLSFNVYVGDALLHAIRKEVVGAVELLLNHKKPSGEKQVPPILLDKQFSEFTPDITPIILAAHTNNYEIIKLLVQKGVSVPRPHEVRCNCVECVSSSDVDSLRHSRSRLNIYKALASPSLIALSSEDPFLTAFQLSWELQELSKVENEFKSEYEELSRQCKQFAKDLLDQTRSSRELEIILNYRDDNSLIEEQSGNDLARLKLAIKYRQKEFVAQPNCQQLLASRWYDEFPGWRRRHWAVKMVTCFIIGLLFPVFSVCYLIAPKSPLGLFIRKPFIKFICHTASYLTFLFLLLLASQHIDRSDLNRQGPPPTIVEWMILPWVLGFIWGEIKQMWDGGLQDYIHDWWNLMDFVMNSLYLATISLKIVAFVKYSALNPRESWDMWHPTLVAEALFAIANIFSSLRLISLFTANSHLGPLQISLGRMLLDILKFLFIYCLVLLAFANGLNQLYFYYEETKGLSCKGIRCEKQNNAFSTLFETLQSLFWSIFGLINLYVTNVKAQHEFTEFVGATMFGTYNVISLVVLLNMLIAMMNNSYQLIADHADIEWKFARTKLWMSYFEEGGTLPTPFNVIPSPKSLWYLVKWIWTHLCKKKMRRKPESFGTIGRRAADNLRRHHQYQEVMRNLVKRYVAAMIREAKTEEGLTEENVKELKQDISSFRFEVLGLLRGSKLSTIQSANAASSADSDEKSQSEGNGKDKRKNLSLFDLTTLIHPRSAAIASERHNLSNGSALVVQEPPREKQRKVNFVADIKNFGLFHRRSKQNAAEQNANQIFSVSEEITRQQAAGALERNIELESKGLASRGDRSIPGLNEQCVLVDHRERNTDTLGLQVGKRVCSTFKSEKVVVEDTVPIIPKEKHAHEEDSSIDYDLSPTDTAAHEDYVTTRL

[15] = target: Delta-type opioid receptor (Homo sapiens, UniProt P41143); assay: Counterscreen for agonists of heterodimerization of the mu 1 (OPRM1) and delta 1 (OPRD1) opioid receptors: Luminescence-based cell-based high throughput dose response assay to identify agonists of OPRD1 homodimerization. [Related pubchem assays (depositor defined):AID504326, AID504355, AID504692, AID504904, AID504905]; assay type: functional
Sequence of Delta-type opioid receptor (P41143 whole entry): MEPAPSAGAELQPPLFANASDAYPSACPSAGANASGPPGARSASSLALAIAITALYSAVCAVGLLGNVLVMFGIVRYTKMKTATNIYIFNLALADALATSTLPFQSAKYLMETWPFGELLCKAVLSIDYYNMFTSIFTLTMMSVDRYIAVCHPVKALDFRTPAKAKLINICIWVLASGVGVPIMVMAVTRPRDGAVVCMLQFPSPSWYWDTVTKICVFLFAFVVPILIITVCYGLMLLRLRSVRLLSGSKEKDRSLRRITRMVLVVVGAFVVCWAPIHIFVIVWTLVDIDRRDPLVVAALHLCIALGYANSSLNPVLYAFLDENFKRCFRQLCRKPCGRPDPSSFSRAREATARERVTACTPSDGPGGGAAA

[16] = target: Mu-type opioid receptor (Homo sapiens, UniProt P35372); assay: Counterscreen for agonists of heterodimerization of the mu 1 (OPRM1) and delta 1 (OPRD1) opioid receptors: Luminescence-based cell-based high throughput dose response assay to identify agonists of OPRM1 homodimerization.; assay type: functional;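 further: U2OS cells expressing OPRM1 and beta-arrestin as split beta-galactosidase partners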
Sequence of Mu-type opioid receptor (P35372 whole entry): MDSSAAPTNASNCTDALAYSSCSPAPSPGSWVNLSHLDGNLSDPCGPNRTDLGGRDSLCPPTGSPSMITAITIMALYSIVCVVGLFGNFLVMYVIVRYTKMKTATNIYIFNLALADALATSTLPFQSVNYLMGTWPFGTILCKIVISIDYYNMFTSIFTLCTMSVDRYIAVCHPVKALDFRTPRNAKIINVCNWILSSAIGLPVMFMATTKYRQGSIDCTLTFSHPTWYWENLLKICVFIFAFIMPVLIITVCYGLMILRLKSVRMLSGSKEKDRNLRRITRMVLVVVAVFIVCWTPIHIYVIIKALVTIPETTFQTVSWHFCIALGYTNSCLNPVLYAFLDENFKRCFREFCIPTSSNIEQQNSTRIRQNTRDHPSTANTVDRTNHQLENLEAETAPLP

[17] = target: 5-hydroxytryptamine receptor 5A (Homo sapiens, UniProt P47898); assay: Counterscreen for agonists of OPRM1-OPRD1 heterodimerization: luminescence-based cell-based high throughput dose response assay to identify agonists of 5-hydroxytryptamine (serotonin) 5A receptor (HTR5A). [Related pubchem assays (depositor defined):AID504326, AID504355, AID504692, AID504904, AID504905]; assay type: functional
Sequence of 5-hydroxytryptamine receptor 5A (P47898 whole entry): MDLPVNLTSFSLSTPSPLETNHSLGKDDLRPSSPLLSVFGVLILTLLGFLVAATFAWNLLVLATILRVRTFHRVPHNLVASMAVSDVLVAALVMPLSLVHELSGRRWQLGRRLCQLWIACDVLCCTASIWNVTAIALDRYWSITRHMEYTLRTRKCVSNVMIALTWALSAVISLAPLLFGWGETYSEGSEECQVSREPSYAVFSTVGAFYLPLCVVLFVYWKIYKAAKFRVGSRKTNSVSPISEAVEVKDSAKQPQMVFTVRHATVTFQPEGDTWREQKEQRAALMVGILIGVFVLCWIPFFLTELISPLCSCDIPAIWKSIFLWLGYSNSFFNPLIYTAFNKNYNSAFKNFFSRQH

[18] = target: Large T antigen (Simian virus 40, UniProt P03070); assay type: functional, Betapolyomavirus macacae;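 further: Confirmatory-stage PubChem screen for compounds that inhibit SV40 T antigen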
Sequence of Large T antigen (P03070 whole entry): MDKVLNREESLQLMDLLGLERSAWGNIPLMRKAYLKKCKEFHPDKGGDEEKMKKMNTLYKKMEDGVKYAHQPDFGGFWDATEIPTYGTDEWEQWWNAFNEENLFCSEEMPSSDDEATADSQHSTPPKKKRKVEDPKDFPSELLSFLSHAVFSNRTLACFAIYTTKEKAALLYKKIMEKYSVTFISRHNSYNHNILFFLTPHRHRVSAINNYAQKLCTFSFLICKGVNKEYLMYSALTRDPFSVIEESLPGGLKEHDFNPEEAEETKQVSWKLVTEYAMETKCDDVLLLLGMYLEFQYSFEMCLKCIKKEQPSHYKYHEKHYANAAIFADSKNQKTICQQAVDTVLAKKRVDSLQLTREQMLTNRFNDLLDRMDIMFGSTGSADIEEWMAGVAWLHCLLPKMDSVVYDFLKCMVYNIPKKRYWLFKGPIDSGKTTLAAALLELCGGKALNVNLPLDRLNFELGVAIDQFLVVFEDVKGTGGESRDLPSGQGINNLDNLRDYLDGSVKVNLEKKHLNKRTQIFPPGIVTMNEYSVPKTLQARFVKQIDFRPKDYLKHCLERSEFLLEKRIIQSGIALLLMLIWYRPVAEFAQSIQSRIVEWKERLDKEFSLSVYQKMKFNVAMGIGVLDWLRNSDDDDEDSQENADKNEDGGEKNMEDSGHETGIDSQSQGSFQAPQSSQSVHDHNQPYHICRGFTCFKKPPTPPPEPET

[19] = inhibitors of intracellular T. cruzi replication, confirmation, NIH3T3 host cells, beta-gal luminescence (AID 2044); assay type: functional, cell-based;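 further: intracellular parasites grown in NIH/3T3 mouse fibroblasts as host cells; luminescent beta-galactosidase reporter signal from transgenic T. cruzi replicating inside host cells; inhibitors lower the luminescence signal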
[20] = cytotoxicity toward NIH3T3 fibroblasts, dose response, counter-screen, cell-based, ATP luminescence, mouse fibroblasts (AID 2010); assay type: functional;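 further: cells exposed to compound for about 90 hours before reading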
[21] = target: T4, Short transient receptor potential channel 4; assay: mouse TRPC4 channel inhibitors, dose response, cell-based, HEK293 TRPC4/mu-opioid, Fluo-4 calcium (AID 434942); assay type: functional;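 further: potency of inhibitors blocking the TRPC4 calcium response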
[22] = tested on: INS1; assay: beta cell apoptosis inhibitors, cytokine rescue, dose response, luminescence, retest (AID 449756); assay type: functional, cell-based; settings: Rattus norvegicus;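 further: cell death triggered by IL-1 beta plus TNF-alpha plus IFN-gamma mixture; protective hits raise ATP signal compared with cytokine alone wells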
[23] = target: Genome polyprotein (dengue virus type 2, UniProt P29990); assay: Dengue-2 NS5 methyltransferase inhibitors, primary screen, biochemical, confirmation dose response (AID 588689); assay type: functional
Sequence of Genome polyprotein (P29990 2492-3391 limits assumed): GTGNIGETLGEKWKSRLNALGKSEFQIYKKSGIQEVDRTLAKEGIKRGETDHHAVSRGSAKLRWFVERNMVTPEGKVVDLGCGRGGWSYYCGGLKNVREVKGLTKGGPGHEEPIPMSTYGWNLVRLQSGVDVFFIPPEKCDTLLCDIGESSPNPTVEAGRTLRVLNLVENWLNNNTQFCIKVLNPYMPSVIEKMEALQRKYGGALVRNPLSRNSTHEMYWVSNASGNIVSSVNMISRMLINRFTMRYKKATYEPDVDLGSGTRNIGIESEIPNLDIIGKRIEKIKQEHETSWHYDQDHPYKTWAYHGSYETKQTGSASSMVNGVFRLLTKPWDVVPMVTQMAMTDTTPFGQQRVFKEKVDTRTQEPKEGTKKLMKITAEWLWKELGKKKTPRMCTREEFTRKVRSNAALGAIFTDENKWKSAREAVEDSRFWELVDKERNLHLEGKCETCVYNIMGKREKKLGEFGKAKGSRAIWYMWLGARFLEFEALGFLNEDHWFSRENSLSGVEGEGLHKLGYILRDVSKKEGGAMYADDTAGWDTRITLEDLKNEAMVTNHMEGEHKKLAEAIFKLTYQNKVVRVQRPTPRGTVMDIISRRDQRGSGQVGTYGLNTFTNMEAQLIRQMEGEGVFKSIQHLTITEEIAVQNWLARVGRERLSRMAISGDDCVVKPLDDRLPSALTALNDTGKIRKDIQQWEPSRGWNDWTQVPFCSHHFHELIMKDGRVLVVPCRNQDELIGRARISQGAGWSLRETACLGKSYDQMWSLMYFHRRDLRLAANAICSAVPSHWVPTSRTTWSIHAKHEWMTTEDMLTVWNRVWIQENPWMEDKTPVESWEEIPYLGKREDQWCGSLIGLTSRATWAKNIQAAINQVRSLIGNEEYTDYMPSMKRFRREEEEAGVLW

[24] = target: T5, Hepatocyte nuclear factor 4-alpha (Homo sapiens, UniProt P41235); assay type: functional, cell-based;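 further: biochemical luminescence-based dose-response counterscreen measuring inhibition of HNF4 dimerization, run alongside a screen for blockers of ABHD5–perilipin-5 interaction; split luciferase complementation of HNF4 fusion proteins in cell lysate measuring dimerization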
T5 sequence (P41235 whole entry): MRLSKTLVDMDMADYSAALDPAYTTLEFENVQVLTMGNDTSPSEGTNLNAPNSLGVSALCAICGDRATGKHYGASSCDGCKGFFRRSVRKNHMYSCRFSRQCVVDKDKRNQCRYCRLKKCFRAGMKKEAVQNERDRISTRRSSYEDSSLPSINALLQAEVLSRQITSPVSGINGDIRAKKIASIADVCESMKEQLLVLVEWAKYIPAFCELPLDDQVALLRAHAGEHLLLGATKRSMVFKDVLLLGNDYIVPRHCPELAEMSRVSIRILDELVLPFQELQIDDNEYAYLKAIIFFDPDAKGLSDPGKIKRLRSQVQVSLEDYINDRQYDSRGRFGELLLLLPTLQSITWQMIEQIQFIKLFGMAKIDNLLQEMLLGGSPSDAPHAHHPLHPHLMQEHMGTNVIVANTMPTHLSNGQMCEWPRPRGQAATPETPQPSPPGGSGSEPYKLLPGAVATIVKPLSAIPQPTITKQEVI

[25] = inhibitors of PGC1a acetylation in cells, dose response, cell-based, cherry-picked samples (AID 720514); assay type: functional;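 further: potency may reflect raised or lowered acetylation signal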
[26] = tested on: Vero; assay: cells; assay type: functional, cell-based; settings: Chlorocebus sabaeus
[27] = tested on: Vero; assay: cells; assay type: functional; settings: Chlorocebus sabaeus
[28] = target: T6, Galanin receptor type 3 (Homo sapiens, UniProt O60755); assay: Fluorescence-based cell-based primary high throughput dose response assay to identify antagonists of the Galanin Receptor 3 (GalR3).; assay type: functional
T6 sequence (O60755 whole entry): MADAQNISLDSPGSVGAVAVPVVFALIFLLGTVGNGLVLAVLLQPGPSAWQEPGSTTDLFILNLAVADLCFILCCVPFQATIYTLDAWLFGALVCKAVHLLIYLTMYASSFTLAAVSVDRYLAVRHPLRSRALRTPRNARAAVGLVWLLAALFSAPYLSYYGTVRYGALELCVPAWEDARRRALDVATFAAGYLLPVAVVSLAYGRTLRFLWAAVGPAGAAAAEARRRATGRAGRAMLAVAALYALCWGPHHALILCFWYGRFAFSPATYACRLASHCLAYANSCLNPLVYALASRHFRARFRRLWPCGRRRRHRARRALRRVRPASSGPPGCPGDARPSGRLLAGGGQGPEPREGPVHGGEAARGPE

[29] = cells; assay type: functional, cell-based; settings: HEK-CNG
[30] = target: Paired box protein Pax-8 (Homo sapiens, UniProt Q06710); assay: inhibitors of PAX8-driven TPO luciferase reporter, dose response, RMG-I cells, cherry-pick (AID 687027); assay type: functional, cell-based;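 further: luciferase reporter driven by Pax8 target thyroperoxidase promoter measured by SteadyGlo luminescence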
Sequence of Paired box protein Pax-8 (Q06710 whole entry): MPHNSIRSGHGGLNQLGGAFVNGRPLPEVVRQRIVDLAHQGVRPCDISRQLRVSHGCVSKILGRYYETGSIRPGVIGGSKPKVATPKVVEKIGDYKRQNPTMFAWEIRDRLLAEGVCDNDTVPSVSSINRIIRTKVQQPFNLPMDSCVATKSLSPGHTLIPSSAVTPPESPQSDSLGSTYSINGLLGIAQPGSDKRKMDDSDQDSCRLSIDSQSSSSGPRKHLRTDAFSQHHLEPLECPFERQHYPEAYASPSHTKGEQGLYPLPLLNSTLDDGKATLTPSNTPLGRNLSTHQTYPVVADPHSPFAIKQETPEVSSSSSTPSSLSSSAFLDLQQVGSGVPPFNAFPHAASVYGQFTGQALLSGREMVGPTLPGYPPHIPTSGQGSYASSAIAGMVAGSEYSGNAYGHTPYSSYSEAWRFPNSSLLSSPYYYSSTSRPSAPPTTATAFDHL

Compound: O=C(Nc1nnc(-c2ccccc2)o1)c1cc(-c2cccs2)nc2ccccc12
- EC50 [1]: > 150 µM (inconclusive)
- EC50 [2]: 1.15 µM (active)
- CC50 [3]: 38.7 µM (active)
- IC50 [4]: > 66.2 µM (inactive)
- IC50 [5]: 43.7 µM (inactive)
- IC50 [6]: 6.15 µM (active)
- IC50 [7]: 30.4 µM (inactive)
- IC50 [8]: 8.5 µM (active)
- IC50 [9]: > 50 µM (inactive)
- IC50 [10]: 6.82 µM (active)
- IC50 [11]: 19.5 µM (active)

Compound: Oc1ccc(NCc2cccc(OCc3ccccc3)c2)cc1
- CC50 [12]: > 40 µM (active)
- CC50 [13]: 36.2 µM (active)

Compound: CCCC(=O)NC(C)C(c1cccs1)N1CCN(c2ccccc2)CC1 (stereo unspecified)
- EC50 [14]: 0.267 µM (active)
- EC50 [15]: > 92.5 µM (inactive)
- EC50 [16]: > 92.5 µM (inactive)
- EC50 [17]: > 92.5 µM (inactive)

Compound: CCOC(=O)c1c(NC(=O)/C=C/C(=O)O)sc(C)c1-c1ccc(C(C)(C)C)cc1
- IC50 [18]: 20.8 µM (active)
- EC50 [19]: 3.42 µM (active)
- EC50 [20]: > 60 µM (not active)
- EC50 [21]: 5.31 µM (active)
- CC50 [12]: 10.6 µM (active)
- AC50 [22]: 4.33 µM (active)
- IC50 [23]: 25.6 µM (active)
- IC50 [24]: 17.4 µM (inactive)
- AC50 [25]: 32.8 µM (active)

Compound: CCOC(=O)c1ccc2[nH]c(C)c(C)c2c1
- IC50 [4]: > 66.3 µM (inactive)
- IC50 [5]: > 49.8 µM (inactive)
- IC50 [6]: 5.45 µM (active)
- IC50 [7]: 20.2 µM (inactive)
- IC50 [8]: 18.8 µM (inactive)
- IC50 [9]: 13.5 µM (inactive)

Compound: COc1ccc(C(CNC(=O)C(C)c2ccc3cc(OC)ccc3c2)N(C)C)cc1 (stereo unspecified)
- EC50 [14]: 0.473 µM (active)
- EC50 [15]: > 92.4 µM (inactive)
- EC50 [16]: > 92.4 µM (inactive)
- EC50 [17]: > 92.4 µM (inactive)

Compound: C[C@]12CC[C@H]3[C@@H](CC[C@@]4(O)C[C@@H](O)CC[C@]34C=O)[C@]1(O)CC[C@@H]2C1=CC(=O)OC1
- IC50 [26]: < 0.05 µM (active)
- CC50 [27]: 1.65 µM (active)
- IC50 [28]: > 29.9 µM (inactive)
- EC50 [29]: > 29.9 µM (inactive)
- AC50 [30]: 3.39 µM (active)
